Measurements published in ChEMBL document CHEMBL4382251, “A Pair of Enantiomeric Bis- seco-abietane Diterpenoids from Cryptomeria fortunei” (J Nat Prod, 2018).

Legend:
Assay type in all cases: functional, cell-based
HL-60 = assay: Antiproliferative activity against human HL60 cells after 72 hrs by CCK8 assay; settings: HL-60, 72 h
A549 = assay: Antiproliferative activity against human A549 cells after 72 hrs by sulforhodamine B assay; settings: A549, 72 h
SGC-7901 = assay: Antiproliferative activity against human SGC7901 cells after 72 hrs by sulforhodamine B assay; settings: SGC-7901, 72 h

Structure (SMILES) | IC50 (HL-60) [µM] | IC50 (A549) [µM] | IC50 (SGC-7901) [µM]
Cc1ccc2cc(C(C)C)c(O)cc2c1CC[C@@H]1OC(C)(C)OC1(C)C | 45.5 | 26.2 | 31.7
CC(=O)Oc1cc2c(CC[C@@H](O)C(C)(C)O)c(C)ccc2cc1C(C)C | 41.2 | 48.6 | 47.5
Cc1ccc(/C=C(\C(=O)O)C(C)C)c2c1CC[C@@H](C(C)(C)O)OC2=O | > 100 | > 100 | > 100
CC(=O)Oc1cc2c(CC[C@H]3OC(C)(C)OC3(C)C)c(C)ccc2cc1C(C)C | 17.2 | 28.9 | 36.7
CC(=O)Oc1cc2c(CC[C@H](O)C(C)(C)O)c(C)ccc2cc1C(C)C | 21.7 | 50.5 | 45.8
Cc1ccc(/C=C(\C(=O)O)C(C)C)c2c1CC[C@H](C(C)(C)O)OC2=O | > 100 | > 100 | > 100
CC(=O)Oc1cc2c(CC[C@@H]3OC(C)(C)OC3(C)C)c(C)ccc2cc1C(C)C | 16 | 68.5 | 88.9
CC(=O)Oc1cc2c(CCC=C(C)C)c(C)ccc2cc1C(C)C | 20.8 | 25.5 | 34.4
Cc1ccc2cc(C(C)C)c(O)cc2c1CC[C@H]1OC(C)(C)OC1(C)C | 49.4 | 23.5 | 33.1
CC(=O)Oc1cc2c(cc1C(C)C)C(=O)C=C1C(C)(C)CCCC12C (single isomer, unassigned) | 25.7 | 26.9 | 22.9
COc1cc2c(cc1C(C)C)C(=O)C=C1C(C)(C)CCCC12C (single isomer, unassigned) | > 100 | > 100 | > 100
